The record followed here is patent US4803167A, “Monoclonal antidigoxtin antibodies” (The General Hospital Corporation, priority 1982, dated 1989).

Read-outs that look alike come from different tables or passages of the source.

Common to all, as to assay: Specificity determination, inhibition of [3H]digoxin binding in dextran charcoal RIA
In assay [1] the test system is monoclonal anti-digoxin antibody Dig 35-20. Details: species or system mouse (A/J). The note with it: for amount of inhibitor required to give 50% inhibition relative to the amount of digoxin which gave 50% inhibition: inhibition of antibody binding to [3H]digoxin. The procedure:
(§1) The specificity of each antidigoxin antibody for related cardiac glycosides was assessed by the inhibition of binding of antibody in the dextran charcoal radioimmunoassay Smith (1972), supra. To a constant amount of H^3 -digoxin (1.5 ng) in 1 ml of buffer is added different amounts ([…]) of various cardiac glycosides: digoxin, digitoxin, digitoxigenin, digoxigenin, acetyl-strophanthidin, ouabain, deslanoside, and endogenous steroids such as chloresterol, cortisol, androsterone, 17-[beta]-estradiol, progesterone, and testosterone. After 5 minutes, a constant amount of anti-digoxin antibody was added and the assay was continued as described above. Comparison among different antidigoxin antibodies with respect to their fine specificity was made by determining the amount of cardiac glycoside required to achieve 50% inhibition relative to that required for cold digoxin.
(§2) Specificity of monoclonal antibody binding site for related cardiac glycosides was examined by means of hapten inhibition experiments in which the binding of monoclonal antibody to H^3 -digoxin was inhibited by cold digoxin and related cardiac glycosides.

Assay [2] has as its system monoclonal anti-digoxin antibody Dig 25-54. Details: species or system mouse (A/J). The following applies: for amount of inhibitor required to give 50% inhibition relative to the amount of digoxin which gave 50% inhibition: inhibition of antibody binding to [3H]digoxin. As to the method:
as §1, §2

Assay [3] concerns monoclonal anti-digoxin antibody Dig 26-20. The arrangement: species or system mouse (A/J). The note with it: for amount of inhibitor required to give 50% inhibition relative to the amount of digoxin which gave 50% inhibition: inhibition of antibody binding to [3H]digoxin. The procedure:
as §1, §2

In assay [4] the test system is monoclonal anti-digoxin antibody Dig 26-40. Details: species or system mouse (A/J). The following applies: for amount of inhibitor required to give 50% inhibition relative to the amount of digoxin which gave 50% inhibition: inhibition of antibody binding to [3H]digoxin. The procedure:
as §1, §2

Assay [5] relates to monoclonal anti-digoxin antibody Dig 26-30. Details: species or system mouse (A/J). The following applies: for amount of inhibitor required to give 50% inhibition relative to the amount of digoxin which gave 50% inhibition: inhibition of antibody binding to [3H]digoxin. The procedure: as §1, §2
In assay [6] the test system is monoclonal anti-digoxin antibody Dig 26-10. The arrangement: species or system mouse (A/J). The note with it: for amount of inhibitor required to give 50% inhibition relative to the amount of digoxin which gave 50% inhibition: inhibition of antibody binding to [3H]digoxin. The procedure:
as §1, §2

In assay [7] the test system is Sheep Anti-Dig Serum (heterogeneous anti-digoxin antiserum). The note with it: inhibition of antibody binding to [3H]digoxin. As to the method: Antisera specific for digoxin was prepared in sheep as previously described by Curd et al, Proc. Nat. Acad. Sci. 65: 2401 (1971). High affinity antidigoxin sheep antisera was used in the clinical RIA for digoxin (described below).
as §1, §2

[8] abbreviates: highest concentration tested 10^-4 M.

`CC(=O)[C@H]1CC[C@H]2[C@@H]3CCC4=CC(=O)CC[C@]4(C)[C@H]3CC[C@]12C` [progesterone]: the “inhibition of binding of [3H]digoxin by endogenous steroids” value (“inhibition of binding of [3H]digoxin” for short) in assay [1] (setting [8]), in assay [2] (setting [8]), in assay [3] (setting [8]), in assay [4] (setting [8]), in assay [5] (setting [8]) and in assay [6] (setting [8]) was “No significant inhibition” each time.
Regarding `CC(=O)O[C@H]1CC[C@]2(C=O)[C@H]3CC[C@]4(C)[C@@H](C5=CC(=O)OC5)CC[C@]4(O)[C@@H]3CC[C@]2(O)C1` [Acetylstrophanthidin], the “amount of inhibitor required to give 50% inhibition relative to the amount of digoxin which gave 50% inhibition” value is given as 110 in assay [1]; over 100 in assay [2]; 0.70 in assay [3]; 2.30 in assay [4]; 0.85 in assay [5]; 1.50 in assay [6].
Turning to `C[C@]12CCC(=O)C=C1CC[C@@H]1[C@@H]2[C@@H](O)C[C@@]2(C)[C@H]1CC[C@]2(O)C(=O)CO` [cortisol], the “inhibition of binding of [3H]digoxin” value in assay [1] (setting [8]), in assay [2] (setting [8]), in assay [3] (setting [8]), in assay [4] (setting [8]), in assay [5] (setting [8]) and in assay [6] (setting [8]) was “No significant inhibition” each time.
Take `C[C@]12CC[C@H]3[C@@H](CCC4=CC(=O)CC[C@@]43C)[C@@H]1CC[C@@H]2O` [testosterone]: the “inhibition of binding of [3H]digoxin” value in assay [1], in assay [2], in assay [3], in assay [4], in assay [5] and in assay [6] was “No significant inhibition” throughout.
As for `C[C@H]1O[C@@H](O[C@H]2[C@@H](O)C[C@H](O[C@H]3[C@@H](O)C[C@H](O[C@H]4CC[C@@]5(C)[C@H](CC[C@@H]6[C@@H]5CC[C@]5(C)[C@@H](C7=CC(=O)OC7)CC[C@]65O)C4)O[C@@H]3C)O[C@@H]2C)C[C@H](O)[C@@H]1O` [Digitoxin], the “amount of inhibitor required to give 50% inhibition relative to the amount of digoxin which gave 50% inhibition” value in assay [7] was found to be 152.0; in assay [7] (listed as digitoxin), 150; in assay [1], 4.6; in assay [2] it was 1.8; in assay [3], 1.0; in assay [4] it was 1.4. Also, the figures for the “amount of inhibitor required to give 50% inhibition relative to the amount of digoxin which gave 50% inhibition” value in assay [5] and in assay [6] were 2.6 and 1.3, respectively.
Regarding `C[C@]12CC[C@H](O)C[C@H]1CC[C@@H]1[C@@H]2CC[C@]2(C)[C@@H](C3=CC(=O)OC3)CC[C@]12O` [Digitoxigenin], the “amount of inhibitor required to give 50% inhibition relative to the amount of digoxin which gave 50% inhibition” value came to 860.0 in assay [7]; 2.7 in assay [1]; 54.0 in assay [2]; 2.2 in assay [3]; 4.0 in assay [4]; 3.6 in assay [5]. The “amount of inhibitor required to give 50% inhibition relative to the amount of digoxin which gave 50% inhibition” value in assay [6] came to 3.7.
Consider `C[C@]12CC[C@@H]3c4ccc(O)cc4CC[C@H]3[C@@H]1CC[C@@H]2O` [17-[beta]-estradiol], for which the “inhibition of binding of [3H]digoxin” value in assay [1] (setting [8]), in assay [2] (setting [8]), in assay [3] (setting [8]), in assay [4] (setting [8]), in assay [5] (setting [8]) and in assay [6] (setting [8]) was “No significant inhibition” each time.
With `C[C@H]1O[C@@H](O[C@H]2CC[C@@]3(C)[C@H](CC[C@@H]4[C@@H]3C[C@@H](O)[C@]3(C)[C@@H](C5=CC(=O)OC5)CC[C@]43O)C2)C[C@H](O)[C@@H]1O[C@H]1C[C@H](O)[C@H](O[C@H]2C[C@H](O)[C@H](O[C@@H]3O[C@H](CO)[C@@H](O)[C@H](O)[C@H]3O)[C@@H](C)O2)[C@@H](C)O1` [Deslanoside], the “amount of inhibitor required to give 50% inhibition relative to the amount of digoxin which gave 50% inhibition” value was 3.7 in assay [1]; 4.3 in assay [2]; 1.5 in assay [3]; 2.0 in assay [4]; 1.6 in assay [5]; 2.6 in assay [6].
4-androstedione: the “inhibition of binding of [3H]digoxin” value in assay [1], in assay [2], in assay [3], in assay [4], in assay [5] and in assay [6] was “No significant inhibition” in each case.
With `CC(C)CCC[C@@H](C)[C@H]1CC[C@H]2[C@@H]3CC=C4C[C@@H](O)CC[C@]4(C)[C@H]3CC[C@]12C` [cholesterol], the “inhibition of binding of [3H]digoxin” value in assay [1] (setting [8]), in assay [2] (setting [8]), in assay [3] (setting [8]), in assay [4] (setting [8]), in assay [5] (setting [8]) and in assay [6] (setting [8]) was “No significant inhibition” each time.
